Measurements taken from patent publication US20250223561A1, “PHARMACEUTICAL COMPOSITION CONTAINING miR-140 AND METHOD FOR PRODUCING SAME” (HIROKO SCIENCE INC., priority 2022, published 2025).
Values joined by “and” are separate entries in the source; they are usually repeats but may differ in a detail not shown here. Identical values can stand only once.

Assays:
[1] = system: immortalized chondrocytes; assay: Total RNA extracted from exosomal fractions of immortalized chondrocytes treated with exosome release enhancers (Nano Drop); assay type: cell-based, human; details: for Nucleic Acid conc.: RNA from exosomal fraction of culture supernatant, cells cultured with 10 nM estradiol, enhancer added on day four (10 uM monensin, 20 nM aplimod, 10 uM D609), Nano Drop, dilution ratio 1; for Amount of RNAs: same samples, liquid volume 15 ul
Procedure: (§1) The fifth passage of immortalized chondrocytes was passaged and seeded in four flasks with a volume of 75 cm^2 at a concentration of 1.5×10^6 cells per flask. Culturing was started after adding 10 nM of estradiol to three of them and without adding it to one of them. […] The medium was collected from each flask the following day and then centrifuged at 1,500 rpm for 5 min. The supernatants were further filtered through a filter with a pore size of 0.22 um and stored as exosomal fractions at −80° C. until an analysis of miR.
MicroRNAs were extracted from the exosomal fractions in Example 2 using an exoRNAeasy Serum/Plasma Maxi Kit (Qiagen). The A260/A280 and A260/A230 ratios of the extracted RNAs were measured using a spectrophotometer Nano Drop One (Thermo Fisher Scientific), showing that the samples were free of protein and salt impurities. Electrophoresis of the samples was further conducted using Agilent 2100 Bioanalyzer (Aligent Technologies), confirming that only the target nucleic acids were contained.

miR-140 = assay: Expression of miR-140 in exosomal fractions by real-time PCR; assay type: cell-based, human; details: for Cp value: Hs miR-140_1 primer assay (miR-140-5p), single replicates n1, n2, low Cp value means a large amount of miR-140; for Cp value Average: Hs miR-140_1 primer assay, average of n1 and n2
Procedure: as §1
cDNA synthesis was conducted with the extracted RNAs using miScript II RT Kit (catalog No. 218160, Qiagen) under the following conditions.
Real-time PCR reactions were conducted on a real-time PCR system (LightCycler 480, Roche) under the following conditions using miScript SYBR Green PCR Kit (catalog No. 218073, Qiagen) with the cDNAs synthesized as described above. The primer for the miR-140 measurement was Hs_miR-140_1 miScript Primer Assay (catalog No. MS00003500, has-miR-140-5p: MIMAT0000431).

SMILES: S=C(S)OC1CC2CC1C1CCCC21 (stereo not drawn) [D, D609]
- Nucleic Acid conc. [1]: 206.3 ng/µL
- Amount of RNAs [1]: 3094.4 ng
- Cp value (miR-140; listed as 4-D): 36.84 and 36.89
- Cp value Average (miR-140): 36.87

SMILES: Cc1cccc(/C=N/Nc2cc(N3CCOCC3)nc(OCCc3ccccn3)n2)c1 [Apl, aplimod]
- Nucleic Acid conc. [1]: 179.7 ng/µL
- Amount of RNAs [1]: 2695.9 ng
- Cp value (miR-140; listed as 3-Apl): 36.78 and 36.76
- Cp value Average (miR-140): 36.77

SMILES: CC[C@@]1([C@@H]2O[C@@H]([C@H]3O[C@@](O)(CO)[C@H](C)C[C@@H]3C)C[C@@H]2C)CC[C@H]([C@]2(C)CC[C@]3(C[C@H](O)[C@@H](C)[C@@H]([C@@H](C)[C@@H](OC)[C@H](C)C(=O)O)O3)O2)O1 [Mo, monensin]
- Nucleic Acid conc. [1]: 290.5 ng/µL
- amount of nucleic acid collected (comparison among treatments) ([1]; compared with control, aplimod and D609 samples): highest
- Amount of RNAs [1]: 4357.6 ng
- miR-140 content compared with the other groups (miR-140; from real-time PCR Cp values): nearly twice as much miR-140 as the others
